# Measured values as given in article PMC12344774, “Ferrocenyl Quinoline-Benzimidazole Hybrids: A Multistage Strategy to Combat Drug-Resistant Malaria” (Inorganic Chemistry, 2025).
# Read-outs that look alike come from different tables or passages of the source.
# Columns and labels:
# PfNF54 = assay: In vitro ABS antiplasmodial activity, pLDH assay, drug-sensitive NF54; format: cell-based, Plasmodium falciparum; conditions: read-out: PfNF54 IC50 ± SEM
# Source text: (§1) This side chain is also present in the well-known antiplasmodial agent, FQ.
# (§2) Test samples were screened in technical duplicate or triplicate, for three or four biological replicates, for their in vitro blood stage antiplasmodial activity against both the drug-sensitive (NF54) and multidrug-resistant (K1) strains of . Continuous in vitro cultures of asexual erythrocyte stages of were maintained using a modified method of Trager and Jensen. A quantitative assessment of the in vitro antiplasmodial activity was determined via the parasite lactate dehydrogenase (pLDH) assay, using a modified method described by Makler and Hinrichs.
# (§3) The test samples were prepared to a 20 mg/mL stock solution in 100% DMSO. Stock solutions were stored at −20 °C. Further dilutions were prepared in complete medium on the day of the experiment. […] Chloroquine diphosphate (CQDP) was used as the reference drug in all experiments. Test samples were tested at a starting concentration of either 100 μg/mL, 50 μg/mL, 10 μg/mL, or 1 μg/mL, which was then serially diluted 2-fold, in complete medium, to give 10 concentrations. The same dilution technique was used for all samples. […] The IC50 values were obtained from full dose–response curves, using a nonlinear dose–response curve fitting analysis, via GraphPad Prism v.5 software.
# PfK1 = assay: microbe, parasite or virus in culture; format: cell-based, Plasmodium falciparum; conditions: read-out: PfK1 IC50 ± SEM
# Source text: as §1, §2, §3
# β-hematin formation = assay: NP-40 detergent-mediated β-hematin formation inhibition assay (cell-free); format: biochemical; conditions: NP-40, pH 4.8, 5 h, 37 °C, read-out: β-hematin formation inhibition IC50 ± SEM
# Source text: The ability of a compound to inhibit Hz formation can be predicted using the biomimetic cell-free NP40 detergent-mediated β-hematin formation inhibition assay. , This assay mimics the conditions in the acidic DV of the parasite and relies on the binding of pyridine to uncrystallized free heme to detect the inhibition of β-hematin formation using UV–vis spectroscopy (with absorbance measured at 405 nm). , Consequently, the ability of the ferrocenyl quinoline-benzimidazole hybrids (C1–C5) to inhibit β-hematin (synthetic Hz) formation was investigated as a potential mechanism of antiplasmodial action.
# The β-hematin formation inhibition assay was modified from the method reported by Sandlin et al. , Stock solutions of the respective test compounds were prepared to 10 mM, in 100% DMSO, with the exception of CQ (used in the salt form, CQDP), which was prepared in Milli-Q water. […] NP-40 is a detergent used to mediate the formation of β-hematin. The solution in column 12 was then serially diluted 2-fold, through to column 2, to give a total of 11 concentrations. Column 1 contained 0 μM of the test compound and thus served as a blank. […] A 178.8 μL aliquot of this hematin suspension was added to 20.0 mL of a 2 M acetate buffer (pH = 4.8) and 100 μL of this solution added to each well. The plates were then covered and incubated for 5 h, at 37 °C. The assay was analyzed using the pyridine-ferrochrome method developed by Ncokazi and Egan. A solution containing water/acetone/2 M HEPES buffer (pH 7.4)/pyridine, in a v/v ratio of 2/2/1/5, was prepared and 32 μL was added to all wells, followed by 60 μL of acetone. The absorbance values were then measured at 405 nm, the results plotted using GraphPad Prism (v5), and the IC50 values obtained using a sigmoidal dose–response curve fitting analysis.
# [1] = tested on: Mature gametocytes (>95% stage V); assay: microbe, parasite or virus in culture; format: cell-based, Plasmodium falciparum; conditions: for % Inhibition, mature gametocytes: maximum inhibition at 10 μM, 48 h drug pressure; for inhibition at 5 µM: Plasmodium falciparum, read-out: % Inhibition, mature gametocytes (controls)
# Protocol: (§4) Compounds are diluted 3-fold in at least a 9-point serial dilution series starting at 20 μM, with a nonlethal DMSO concentration of <0.1% maintained. Luciferase activity was determined in 30 μL parasite lysates by adding 30 μL luciferin substrate (Promega Luciferase Assay System) at room temperature and detection of resultant bioluminescence at an integration constant of 10 s with the GloMax-Multi + Detection System with Instinct Software. Methylene blue (5 μM) and the clinical antimalarial candidate MMV390048 (5 μM) were used as controls. IC50 values were determined in GraphPad Prism using a nonlinear regression fit with variable slope (4-parameter) on the dose–response data.
# (§5) Assay quality parameters are evaluated for each assay, including Z′-factors (data quality compared to reproducibility using signal, noise, and background parameters; accepted metric >0.6), regression (accepted r 2 > 0.9); >80% viable parasites (top plateau); <20% killed parasites (bottom plateau), hill slope ∼1.
# [2] = tested on: Immature gametocytes (>90% stage II/III); assay: microbe, parasite or virus in culture; format: cell-based, Plasmodium falciparum; conditions: for % Inhibition, immature gametocytes: maximum inhibition at 10 μM, 48 h drug pressure; for inhibition at 5 µM: Plasmodium falciparum, read-out: % Inhibition, immature gametocytes (controls)
# Protocol: as §4, §5
# [3] = Cyclic voltammetry of the ferrocene/ferrocenium couple; format: physicochemical; conditions: for Reversibility of the ferrocene/ferrocenium couple: DCM/0.1 M TBAP system; for Ipc/Ipa / ΔE / Anodic peak potential Epa / Cathodic peak potential Epc / Half-wave potential E1/2: scan rate 100 mV/s, CH2Cl2, 0.1 M TBAP; for Anodic peak potential Epa / Cathodic peak potential Epc / Half-wave potential E1/2: vs Ag/AgCl
# Protocol: It has been proposed that the oxidation of ferrocene (Fe(C5H5)2) to the ferrocenium cation (Fe(C5H5)2 ^+) is a reversible one-electron transfer process. […] This prompted the investigation into the electrochemical properties of the Fe(C5H5)2/Fe(C5H5)2 ^+ couple in complexes C1–C5, using cyclic voltammetry. FQ was used as the reference, as it is considered the benchmark for all newly developed ferrocenyl-based antiplasmodials.
# Nuclear magnetic resonance (NMR) spectra were recorded on a Bruker XR600 MHz spectrometer (^1H at 599.95 MHz and ^13C{^1H} at 151.0 MHz), a Bruker […] (^1H at 400.22 MHz and ^13C{^1H} at 100.65 MHz), or a Varian Mercury 300 (^1H at 300.08 MHz) spectrometer. These were equipped with a Bruker Biospin GmbH casing and sample injector at 30 °C and tetramethylsilane (TMS) was used as the internal standard. Coupling constants are reported in Hz and chemical shifts are reported in ppm relative to residual solvent signals. Infrared (IR) spectroscopy was performed on a PerkinElmer Spectrum 100 FT-IR spectrometer, using attenuated total reflectance (ATR), with vibrations measured in units of cm^–1. Cyclic voltammetric measurements were carried out at ambient temperature under an inert argon atmosphere using a three-electrode system on a BASi Epsilon Eclipse potentiostat/galvanostat electrochemical workstation. The C-3 cell stand, equipped with a glassy carbon working electrode, Ag/AgCl (saturated NaCl) reference electrode, and a Pt wire auxiliary electrode were used to carry out electrochemical measurements. All experiments were carried out in anhydrous dichloromethane containing 0.10 M tetra-n-butylammonium perchlorate (TBAP) as the supporting electrolyte.
# CHO cell line [4] = tested on: CHO cell line
# Protocol: (§6) The samples were tested over 48 h against the Chinese hamster ovarian (CHO) cell line to determine general cytotoxicity. […] Quantitative assessment of toxic activity in vitro was determined via the MTT assay using the method described. Cell viability was determined colorimetrically using the breakdown of a dye by enzymes of the electron transport chain, taking place in the mitochondria of metabolically active living cells, as a marker for survival.
# (§7) Compounds were tested in triplicate on a single occasion against these cells using the MTT assay. The test samples were prepared to a 10 mM stock solution, in 100% DMSO, and stored at −20 °C until use. Samples were tested as a suspension if not completely dissolved. Further dilutions to the desired starting concentration were freshly prepared in growth media at the start of the experiment.
# (§8) Cells were plated to a density of 10^5 cells/well in 96-well plates and allowed to attach for 24 h. […] After 44 h MTT was added, and the plates were read 4 h later at 540 nm on a spectrophotometer following the addition of 100 μL of DMSO and gentle plate-shaking to solubilize and visualize the dye. Survival was plotted against concentration, and the IC50 values were obtained using a nonlinear dose–response curve fitting analysis via the Dotmatics software platform.
# [5] = Hydroxyl radical (ROS) generation with H2O2, DCFH2 fluorescent probe; conditions: 200 μM in 1:4 DMSO/PBS, H2O2 and H2DCF added, 30 min
# Source text: Fluorogenic redox-sensitive probes are often employed to measure the presence of ROS, due to their low cost, ease of use, and nontoxicity, allowing for spectrofluorimetric measurements. 2′,7′-Dichlorodihydrofluorescein diacetate (DCFH2-DA) is the most widely used fluorogenic probe. Cleavage of the acetate groups, through alkaline hydrolysis, generates 2′,7′-dichlorodihydrofluorescein (DCFH2), which in the presence of oxidants, yields the highly fluorescent 2′,7′-dichlorofluorescein (DCF, λem = 523 nm). The DCFH2 probe reacts with an array of oxidants, making it an ideal indicator of general oxidative stress. […] The presence of these radicals was confirmed by monitoring the fluorescence over time (Figure ). […].
# Stock solutions of DCFH2-DA were prepared to 1 mM in 100% DMSO and stored at −20 °C in the dark until use. The deacetylation of DCFH2-DA involved adding 2 μL of a 0.5 M NaOH solution to 200 μL of the 1 mM DCFH2-DA stock solution. The solution was mixed for 30 min, in the dark, at room temperature and then quenched with 800 μL of PBS buffer to obtain a 200 μM H2DCF 1:4 DMSO/PBS solution mixture.
# […]. The fluorometer was blanked using a 1:4 DMSO/PBS solution mixture. To identify hydroxyl radical production, 2 μL of a 0.5% H2O2 solution was added to 900 μL of the 200 μM complex solution in a cuvette at 25 °C. 100 μL of the prepared H2DCF solution (200 μM) was quickly added, and the readings recorded at 530 nm (emission wavelength), at 2 min intervals, over 30 min.
# CHO cell line [6] = assay: Cytotoxicity, MTT assay; conditions: selectivity index
# Protocol: as §6, §7, §8
# K1 = conditions: MDR K1; footnote e: Results from ref (number not given); read-out: PfK1 IC50 ± SEM; cited from earlier work
# NF54 = conditions: drug-sensitive NF54; footnote e: Results from ref (number not given); read-out: PfNF54 IC50 ± SEM; cited from earlier work
# [7] = drug-sensitive NF54, ABS, pLDH, 48 h incubation
# [8] = MDR K1, ABS, pLDH, 48 h incubation
Structure (SMILES),"IC50 (PfNF54; Plasmodium falciparum, NF54, 48 h) [µM]","IC50 (PfK1; Plasmodium falciparum, 48 h) [µM]",IC50 (β-hematin formation) [µM],"% Inhibition, mature gametocytes [1] [%]","% Inhibition, immature gametocytes [2] [%]",Reversibility of the ferrocene/ferrocenium couple [3],Ipc/Ipa [3],ΔE [3] [V],Anodic peak potential Epa [3] [V],Cathodic peak potential Epc [3] [V],Half-wave potential E1/2 [3] [V],CC50 (CHO cell line [4]) [µM],IC50 (PfNF54; [7]) [µM],IC50 (PfK1; [8]) [µM],Hydroxyl radical generation (fluorescence intensity over time) [5],SI (CC50 CHO/IC50 NF54) (CHO cell line [6]),IC50 (K1) [µM],IC50 (NF54) [µM],inhibition at 5 µM [1] [%],inhibition at 5 µM [2] [%]
"CCN(CC)CCCC(C)Nc1ccnc2cc(Cl)ccc12 (stereo not shown) [CQ, chloroquine, reference compound]",0.015 ± 0.001,0.17 ± 0.01,11 ± 0.87,,,,,,,,,,,,,,,,,
"Cc1ccc2c(c1)nc(-[c-]1cccc1)n2CCNCCNc1ccnc2cc(Cl)ccc12.[Fe+2].c1cc[cH-]c1 [Complex C2, N1-(7-Chloroquinolin-4-yl)-N2-(2-(5-methyl-2-ferrocenyl-1H-benzo[d]imidazole-1-yl)ethyl)ethane-1,2-diamine]",,,4.47,32,75,chemically and electrochemically reversible,1.03,0.133,0.651,0.518,0.584,> 50,0.038 ± 0.002,0.0094 ± 0.0009,no changes in the fluorescence intensity,,,,,
"Cc1ccc2c(c1)nc(-[c-]1cccc1CN(C)C)n2CCNCCNc1ccnc2cc(Cl)ccc12.[Fe+2].c1cc[cH-]c1 (stereo not shown) [Complex C4, N1-(7-Chloroquinolin-4-yl)-N2-(2-(5-methyl-2-(2-N,N-dimethylaminomethyl)ferrocenyl-1H-benzo[d]imidazole-1-yl)ethyl)ethane-1,2-diamine]",,,4.9,72,59,chemically and electrochemically irreversible,,,0.662,,,29.8 ± 0.5,0.038 ± 0.003,0.17 ± 0.02,produce hydroxyl radicals,784.2,,,,
"Cc1ccc2c(c1)nc(-[c-]1cccc1)n2CCN(CCNc1ccnc2cc(Cl)ccc12)[c-]1cccc1.[Fe+2].[Fe+2].c1cc[cH-]c1.c1cc[cH-]c1 [Complex C5, N1-Ferrocenyl-N2-(7-Chloroquinolin-4-yl)-N1-(2-(5-methyl-2-ferrocenyl-1H-benzo[d]imidazole-1-yl)ethyl)ethane-1,2-diamine]",,,37.7 ± 0.77,32,60,chemically and electrochemically reversible,1.04,0.190,0.632,0.442,0.537,> 50,1.51 ± 0.14,14.5 ± 1.14,no changes in the fluorescence intensity,,,,,
"CN(C)Cc1ccc[c-]1CNc1ccnc2cc(Cl)ccc12.[Fe+2].c1cc[cH-]c1 (stereo not shown) [FQ, ferroquine, reference compound]",,,,,,chemically and electrochemically reversible,1.00,0.125,0.613,0.488,0.550,,,,generate hydroxyl radicals,,0.0239 ± 0.0002,0.02 ± 0.003,,
"[Fe+2].c1cc[cH-]c1.c1cc[cH-]c1 [Ferrocene, reference compound]",,,,,,,1.05,0.171,0.543,0.372,0.458,,,,generate hydroxyl radicals,,,,,
"CS(=O)(=O)c1ccc(-c2cnc(N)c(-c3ccc(C(F)(F)F)nc3)c2)cc1 [MMV390048, reference compound]",,,,,,,,,,,,,,,,,,,> 93,> 77
"CN(C)c1ccc2nc3ccc(=[N+](C)C)cc-3sc2c1 [Methylene blue, reference compound]",,,,,,,,,,,,,,,,,,,100,> 97
